Patent US20230127046A1, “G9a INHIBITOR” (RIKEN, priority 2019, published 2023)
Where two headings read alike, the source gives them in different places.

Molecular target: T1, recombinant human G9a protein (Homo sapiens, UniProt Q96KQ7)
T1 construct: purchased BPS Bioscience Inc. #51001
T1 sequence (Q96KQ7 785-1210 limits assumed): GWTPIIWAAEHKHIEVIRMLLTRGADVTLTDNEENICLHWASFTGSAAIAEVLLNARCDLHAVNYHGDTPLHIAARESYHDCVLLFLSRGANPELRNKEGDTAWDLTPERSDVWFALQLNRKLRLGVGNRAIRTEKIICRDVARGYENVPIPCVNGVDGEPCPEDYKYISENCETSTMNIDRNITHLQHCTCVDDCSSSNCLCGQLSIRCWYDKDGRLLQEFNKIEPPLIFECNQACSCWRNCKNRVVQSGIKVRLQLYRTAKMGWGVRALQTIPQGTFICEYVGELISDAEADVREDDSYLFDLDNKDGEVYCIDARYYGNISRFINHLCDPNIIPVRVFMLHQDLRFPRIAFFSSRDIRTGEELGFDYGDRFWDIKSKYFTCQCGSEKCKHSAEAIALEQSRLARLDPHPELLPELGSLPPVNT
Assay: G9a inhibitory activity test (ALPHA)
Format: biochemical
Experimental: The G9a inhibitory activity of each compound was evaluated by measuring the enzymatic activity of G9a by amplified luminescence proximity homogeneous assay (ALPHA). First, 7.5 μL of a dilution of recombinant human G9a protein (BPS Bioscience Inc., #51001) diluted to 0.05 to 0.1 nM with a Tris buffer solution (50 mM Tris-HCl [pH 9.0], 50 mM NaCl, 0.01% Tween-20, 1 mM DTT), and 0.5 μL of the test compound were added to each well of a 384-well microplate (AlphaPlate-384 Shallow Well, PerkinElmer, Inc., #6008359), mixed by vortex, and incubated at room temperature for 10 minutes. 500 nM biotinylated histone H3 peptide (1-21) (AnaSpec Inc., #61702) and 150 μM SAM (Sigma-Aldrich Co. LLC, #A7007) were mixed at 1:1 in advance, and 2 μL of the mixture was added to each well, mixed by vortex, and then incubated at room temperature for 1 hour. AlphaLISA anti-H3K9me2 acceptor beads (PerkinElmer, Inc., #AL117C) and AlphaScreen streptavidin donor beads (PerkinElmer, Inc., #6760002B) were each diluted with an epigenetic buffer (PerkinElmer, Inc., AlphaLISA Epigenetics Buffer Kit #AL008C) to a final concentration of […] after addition. These dilutions were added to the reaction solution in the dark and incubated at room temperature for 1 hour in the dark. Then, measurement was performed using the EnSpire Alpha plate reader (PerkinElmer, Inc., Waltham, Mass., USA). The G9a inhibitory activity of the test compound was calculated as a compound concentration necessary for suppressing G9a enzymatic activity by 50% (IC50 value), by determining the percent inhibition of the compound when the value of a control without the addition of the compound was defined as 0% and the value of a control without the addition of the enzyme was defined as 100%.

[1] = read-out: Inhibitory activity (G9a IC50)
[2] = biotinylated histone H3 peptide (1-21), SAM, read-out: Inhibitory activity (G9a IC50 value)

CCCC[C@H](NC(=O)c1[nH]c2c(c1C)C(=O)CC(C)(C)C2)C(=O)NCc1ccc(N2CCN(CCO)CC2)cc1 [Example 23, (S)-N-(1-((4-(4-(2-hydroxyethyl)piperazin-1-yl)benzyl)amino)-1-oxohexan-2-yl)-3,6,6-trimethyl-4-oxo-4,5,6,7-tetrahydro-1H-indole-2-carboxamide]
IC50 [1]: ≥ 200 nM

CCCC[C@@H](CNc1ccc(N2CCN(C)CC2)cc1)NC(=O)c1[nH]c2c(c1C)C(=O)CC(C)(C)C2 [Example 17-2]
IC50 [1]: ≥ 200 nM

CCCCC(NC(=O)c1[nH]c2c(c1C)C(=O)CC(C)(C)C2)C(=O)Nc1ccc2cn[nH]c2c1 (stereo not drawn) [Example 1-101]
IC50 [2]: ≥ 200 nM

CCCCC(NC(=O)c1[nH]c2c(c1C)C(=O)CC(C)(C)C2)C(=O)Nc1ccc2[nH]cc(CN(C)C)c2c1 (stereo not drawn) [Example 1-100]
IC50 [2]: < 50 nM

COc1ccc(NC(=O)C(CCC2CC2)NC(=O)c2ccc(OCCN(C)C)cc2)cn1 (stereo not drawn) [Example 6-67]
IC50 [1]: ≥ 200 nM

CCCCC(NC(=O)c1[nH]c2c(c1C)C(=O)CC(C)(C)C2)C(=O)Nc1ccccc1COC (stereo not drawn) [Example 1-22]
IC50 [2]: ≥ 200 nM

CCc1ccccc1NC(=O)C(CCC1CC1)NC(=O)c1[nH]c2c(c1C)C(=O)CC(C)(C)C2 (stereo not drawn) [Example 1-84]
IC50 [2]: < 50 nM

CCCCC(NC(=O)c1[nH]c2c(c1C)C(=O)CC(C)(C)C2)C(=O)Nc1ccc(N2CCN(C)CC2)cc1 (stereo not drawn) [Example 1-103]
IC50 [2]: ≥ 200 nM

CCCCC(NC(=O)c1[nH]c2c(c1C)C(=O)CC(C)(C)C2)C(=O)Nc1cccc2ncccc12 (stereo not drawn) [Example 1-14]
IC50 [2]: ≥ 200 nM

CC(C)c1c(C(=O)N[C@@H](CCC2CC2)C(=O)Nc2ccc(C#N)cc2)[nH]c2c1C(=O)CC(C)(C)C2 [Example 15-4]
IC50 [1]: 50 to 200 nM

CCCCC(NC(=O)C(c1ccccc1)c1ccccc1)C(=O)Nc1ccc(OC)nc1 (stereo not drawn) [Example 7, 2-[(2,2-diphenylacetyl)amino]-N-(6-methoxypyridin-3-yl)hexaneamide]
IC50 [1]: 50 to 200 nM

CCc1ncccc1NC(=O)C(CCC1CC1)NC(=O)c1[nH]c2c(c1C)C(=O)CC(C)(C)C2 (stereo not drawn) [Example 6-6]
IC50 [1]: 50 to 200 nM

CCCCC(NC(=O)c1[nH]c2c(c1C)C(=O)CC(C)(C)C2)C(=O)N[C@@H](CO)c1ccccc1 (stereo partly drawn) [Example 3-1, N-(1-(((R)-2-hydroxy-1-phenylethyl)amino)-1-oxohexan-2-yl)-3,6,6-trimethyl-4-oxo-4,5,6,7-tetrahydro-1H-indole-2-carboxamide]
IC50 [1]: 50 to 200 nM

CSc1ccc(NC(=O)C(CCC2CC2)NC(=O)c2[nH]c3c(c2C)C(=O)CC(C)(C)C3)cn1 (stereo not drawn) [Example 1-72]
IC50 [2]: ≥ 200 nM

CCN(CC)Cc1cccc2c1nc(C(CCC1CC1)NC(=O)c1[nH]c3c(c1C)C(=O)CC(C)(C)C3)n2C (stereo not drawn) [Example 31-4]
IC50 [1]: ≥ 200 nM

CCCC[C@H](NC(=O)c1[nH]c2c(c1C)C(=O)CC(C)(C)C2)c1nc2ccc(OCCO)cc2[nH]1 [Example 36, (S)-N-(1-(6-(2-hydroxyethoxy)-1H-benzo[d]imidazol-2-yl)pentyl)-3,6,6-trimethyl-4-oxo-4,5,6,7-tetrahydro-1H-indole-2-carboxamide]
IC50 [1]: ≥ 200 nM

CCCCC(NC(=O)c1[nH]c2c(c1C)C(=O)CC(C)(C)C2)C(=O)NC1(c2ccccc2)CC1 (stereo not drawn) [Example 1-53]
IC50 [2]: 50 to 200 nM

CCCCC(NC(=O)c1[nH]c2c(c1C)C(=O)CC(C)(C)C2)C(=O)Nc1ccc(NC2CCN(C)CC2)nc1 (stereo not drawn) [Example 1-5]
IC50 [2]: < 50 nM

Cc1c(C(=O)NC(CCC2CC2)C(=O)Nc2ccc(OC3COC3)nc2)[nH]c2c1C(=O)CC(C)(C)C2 (stereo not drawn) [Example 1-71]
IC50 [2]: ≥ 200 nM

CSc1ccccc1NC(=O)C(CCC1CC1)NC(=O)c1[nH]c2c(c1C)C(=O)CC(C)(C)C2 (stereo not drawn) [Example 1-83]
IC50 [2]: < 50 nM

CCCCC(NC(=O)c1[nH]c2c(c1C)C(=O)CC(C)(C)C2)C(=O)Nc1ccc(C#N)cc1 (stereo not drawn) [Example 1-9]
IC50 [2]: ≥ 200 nM

CCCCC(NC(=O)c1[nH]c2c(c1C)C(=O)CC(C)(C)C2)C(=O)Nc1ccc2c(c1)CCN(C)C2 (stereo not drawn) [Example 5-2]
IC50 [1]: ≥ 200 nM

CCCCC(NC(=O)c1nc(-c2ccccc2)sc1C)C(=O)Nc1ccc(OC2CCN(C)CC2)nc1 (stereo not drawn) [Example 11-11]
IC50 [1]: ≥ 200 nM

CCCCC(NC(=O)c1[nH]c2c(c1C)C(=O)CC(C)(C)C2)C(=O)NCc1ccc(Cl)cc1 (stereo not drawn) [Example 1-43]
IC50 [2]: ≥ 200 nM

CCCCC(NC(=O)c1[nH]c2c(c1C)C(=O)CC(C)(C)C2)C(=O)Nc1cccc2c1CCN(C(=O)OC(C)(C)C)C2 (stereo not drawn) [Example 1-115]
IC50 [1]: ≥ 200 nM

CCCCC(NC(=O)c1[nH]c2c(c1C)C(=O)CC(C)(C)C2)C(=O)NCc1ccc(CN2CCCC(F)(F)C2)cc1 (stereo not drawn) [Example 18-7]
IC50 [1]: ≥ 200 nM

COc1ccc(NC(=O)C(CCC2CC2)NC(=O)c2ccc(Nc3ccnc(C)c3)cc2)cn1 (stereo not drawn) [Example 6-63]
IC50 [1]: < 50 nM

CCCC[C@H](NC(=O)c1[nH]c2c(c1C)C(=O)CC(C)(C)C2)C(=O)N1CCc2c(OCCN3CCCCC3)cccc21 [Example 6-104]
IC50 [1]: ≥ 200 nM

Cc1c(C(=O)NC(CCC2CC2)C(=O)N2CCc3c(CN(C)C)cccc32)[nH]c2c1C(=O)CC(C)(C)C2 (stereo not drawn) [Example 1-59]
IC50 [2]: 50 to 200 nM

CCCCC(NC(=O)c1[nH]c2c(c1C)C(=O)CC(C)(C)C2)C(=O)NCc1ccc(OC)cc1 (stereo not drawn) [Example 1-46]
IC50 [2]: ≥ 200 nM

CCCC[C@H](NC(=O)c1[nH]c2c(c1C(C)C)C(=O)CC(C)(C)C2)C(=O)Nc1ccccc1 [Example 6-36]
IC50 [1]: 50 to 200 nM

CCCC[C@H](NC(=O)c1[nH]c2c(c1C)C(=O)CC(C)(C)C2)C(=O)NC(c1ccccc1)C(C)C (stereo partly drawn) [Example 6-47]
IC50 [1]: < 50 nM

Cc1c(C(=O)NC(CCC2CC2)C(=O)N2CCc3ccc(CN4CCCC4)cc32)[nH]c2c1C(=O)CC(C)(C)C2 (stereo not drawn) [Example 1-145]
IC50 [1]: ≥ 200 nM

Cc1c(C(=O)NC(CCC2CC2)C(=O)N2CCc3c(CN4CCCCC4)cccc32)[nH]c2c1C(=O)CC(C)(C)C2 (stereo not drawn) [Example 1-128]
IC50 [1]: < 50 nM

CCCC[C@H](NC(=O)c1[nH]c2c(c1C(C)C)C(=O)CC(C)(C)C2)C(=O)N[C@@H](C)c1ccccc1 [Example 6-41]
IC50 [1]: 50 to 200 nM

CCCCC(NC(=O)c1[nH]c2c(c1C)C(=O)CC(C)(C)C2)C(=O)Nc1ccc(CCN2CCCCC2)cc1 (stereo not drawn) [Example 1-4]
IC50 [2]: < 50 nM

CCCCC(NC(=O)c1[nH]c2c(c1C)C(=O)CC(C)(C)C2)C(=O)Nc1ccccc1C(C)C (stereo not drawn) [Example 1-12]
IC50 [2]: ≥ 200 nM

CCCC[C@H](NC(=O)c1[nH]c2c(c1C)C(=O)CC(C)(C)C2)C(=O)NCc1ccc(N2CCN(CCCC)CC2)cc1 [Example 22-5]
IC50 [1]: 50 to 200 nM

CCCCC(NC(=O)c1[nH]c2ccc(OC)cc2c1C)C(=O)Nc1ccc(OC2CCN(C)CC2)nc1 (stereo not drawn) [Example 6-93]
IC50 [1]: ≥ 200 nM

CCCCC(NC(=O)c1[nH]c2c(c1C)C(=O)CC(C)(C)C2)C(=O)NCc1ccc(C(=O)OC)cc1 (stereo not drawn) [Example 6-21]
IC50 [1]: ≥ 200 nM

Cc1c(C(=O)NC(CCC2CC2)c2nc3ccc(CN(C)C)cc3n2C)[nH]c2c1C(=O)CC(C)(C)C2 (stereo not drawn) [Example 31-2]
IC50 [1]: ≥ 200 nM

Cc1c(C(=O)N[C@@H](CCC2CC2)C(=O)N(C)[C@@H](C)c2ccccc2)[nH]c2c1C(=O)CC(C)(C)C2 [Example 13-5]
IC50 [1]: ≥ 200 nM

CCCC[C@H](NC(=O)c1[nH]c2c(c1CC)C(=O)CC(C)(C)C2)C(=O)N[C@@H](C)c1ccccc1 [Example 6-40]
IC50 [1]: 50 to 200 nM

CCCC[C@H](NC(=O)c1[nH]c2c(c1C)C(=O)CC(C)(C)C2)C(=O)NCc1ccc(N2CCNCC2)cc1 [Example 26-8]
IC50 [1]: < 50 nM

CCCCC(NC(=O)c1[nH]c2c(c1C)C(=O)CC(C)(C)C2)C(=O)NCc1ccc(CN2CCC(F)(F)CC2)cc1 (stereo not drawn) [Example 18-8]
IC50 [1]: ≥ 200 nM
